Reference: US20230114241A1, “METHODS OF TREATING EPILEPSY USING THE SAME” (Trevena, Inc., priority 2019, published 2023)

What follows are molecules tested against human sphingosine-1-phosphate receptor 1 (S1P1) (Homo sapiens, UniProt P21453) (assay: Inhibition of cAMP production (HTRF cAMP HiRange), S1P1 CHO-K1 cells). Conditions: inhibition of cAMP production, S1P1; read-out: hS1P1 CAMP pEC50 (converted).
Type: cell-based
Summary of the method: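 CHO-K1 cells co-expressing human S1P1 (C-terminal ProLink tag) and EA-β-arrestin2, plated overnight; after 30 min compound incubation at 37 °C, intracellular cAMP measured by HTRF TR-FRET following 1 h at room temperature. Values normalized to fingolimod.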

human sphingosine-1-phosphate receptor 1 (S1P1), sequence (P21453 whole entry): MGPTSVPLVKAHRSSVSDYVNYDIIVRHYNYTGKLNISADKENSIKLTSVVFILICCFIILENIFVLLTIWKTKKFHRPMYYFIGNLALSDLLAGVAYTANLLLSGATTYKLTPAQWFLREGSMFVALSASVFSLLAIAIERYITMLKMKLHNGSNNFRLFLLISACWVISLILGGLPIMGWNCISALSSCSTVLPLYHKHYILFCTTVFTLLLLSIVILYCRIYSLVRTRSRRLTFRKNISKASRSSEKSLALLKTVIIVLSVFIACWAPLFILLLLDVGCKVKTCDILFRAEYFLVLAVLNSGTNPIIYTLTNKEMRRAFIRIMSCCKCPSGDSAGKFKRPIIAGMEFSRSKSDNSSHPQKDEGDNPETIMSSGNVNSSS

Compound | EC50 [nM]
CC(C)n1nnc2cc(-c3nc4c(o3)COc3ccccc3-4)ccc21 [Compound 462, 5-{4H-chromeno[4,3-d][1,3]oxazol-2-yl}-1-(propan-2-yl)-1H-1,2,3-benzotriazole] | < 316
CC(C)n1nnc2cc(-c3nc(-c4ccccn4)co3)ccc21 [Compound 474, 1-(propan-2-yl)-5-[4-(pyridin-2-yl)-1,3-oxazol-2-yl]-1H-1,2,3-benzotriazole] | > 316
Cc1occc1-c1noc(-c2ccc3c(c2)nnn3CC(C)(C)O)n1 [Compound 492, 2-methyl-1-{5-[3-(2-methylfuran-3-yl)-1,2,4-oxadiazol-5-yl]-1H-1,2,3-benzotriazol-1-yl}propan-2-ol] | > 316
CC(C)Nc1ccc(-c2ccc(-c3ccc4c(c3)nnn4C(C)C)cc2)cc1C#N [Compound 507, 4′-(1-isopropyl-1H-benzo[d][1,2,3]triazol-5-yl)-4-(isopropylamino)-[1,1′-biphenyl]-3-carbonitrile] | < 316
C=CCNc1ccc(-c2ccc(-c3ccc4c(c3)nnn4C(C)C)cc2)cc1C#N [Compound 508, 4-(allylamino)-4′-(1-isopropyl-1H-benzo[d][1,2,3]triazol-5-yl)-[1,1′-biphenyl]-3-carbonitrile] | > 316
Cc1ccccc1-c1cc(-c2ccc3c(c2)nnn3C(C)C)n(C)c1 [Compound 517, 5-[1-methyl-4-(2-methylphenyl)-1H-pyrrol-2-yl]-1-(propan-2-yl)-1H-1,2,3-benzotriazole] | > 316
COc1cc(NC(C)=O)ccc1-c1noc(-c2ccc3c(c2)nnn3C(C)C)n1 [Compound 532, N-(3-methoxy-4-{5-[1-(propan-2-yl)-1H-1,2,3-benzotriazol-5-yl]-1,2,4-oxadiazol-3-yl}phenyl)acetamide] | < 316
COCCn1cc(-c2ccccc2C)cc1-c1ccc2c(c1)nnn2C(C)C [Compound 534, 5-[1-(2-methoxyethyl)-4-(2-methylphenyl)-1H-pyrrol-2-yl]-1-(propan-2-yl)-1H-1,2,3-benzotriazole] | > 316
CC(C)n1nnc2cc(-c3c[nH]c(-c4ccccc4)c3)ccc21 [Compound 543, 5-(5-phenyl-1H-pyrrol-3-yl)-1-(propan-2-yl)-1H-1,2,3-benzotriazole] | < 316
CCC1(CC)CC(=O)c2cc(-c3nc(-c4cncc(NS(C)(=O)=O)c4)no3)ccc2O1 [Compound 545, N-(5-(5-(2,2-diethyl-4-oxochroman-6-yl)-1,2,4-oxadiazol-3-yl)pyridin-3-yl)methanesulfonamide] | < 316
CCC1(CC)CC(=O)c2cc(-c3nc(-c4ccsc4)no3)ccc2N1 [Compound 554, 2,2-diethyl-6-(3-(thiophen-3-yl)-1,2,4-oxadiazol-5-yl)-2,3-dihydroquinolin-4(1H)-one] | < 316
COc1ccccc1-c1nc(-c2ccc3c(c2)nnn3C(C)C)co1 [Compound 575, 5-[2-(2-methoxy-phenyl)-1,3-oxazol-4-yl]-1-(propan-2-yl)-1H-1,2,3-benzotriazole] | < 316
N#Cc1cc(-c2nnc(-c3ccc4[nH]cnc4c3)o2)ccc1NC1CC1 [Compound 598, 5-[5-(1H-1,3-benzo-diazol-5-yl)-1,3,4-oxadiazol-2-yl]-2-(cyclopropyl-amino)benzonitrile] | < 316
COc1ccncc1-c1nc(-c2ccc3c(c2)nnn3C(C)C)no1 [Compound 605, 3-(1-isopropyl-1H-benzo[d][1,2,3]triazol-5-yl)-5-(4-methoxy-pyridin-3-yl)-1,2,4-oxadiazole] | < 316
Cc1ccsc1-c1nc(-c2ccc3c(c2)nnn3C(C)(C)CO)no1 [Compound 611, 2-methyl-2-(5-(5-(3-methylthiophen-2-yl)-1,2,4-oxadiazol-3-yl)-1H-benzo[d] [1,2,3]triazol-1-yl)propan-1-ol] | < 316
CCc1ccccc1-c1nc(-c2ccc3c(c2)nnn3C(C)(C)CO)no1 [Compound 624, 2-(5-(5-(2-ethyl-phenyl)-1,2,4-oxadiazol-3-yl)-1H-benzo[d][1,2,3]triazol-1-yl)-2-methyl-propan-1-ol] | > 316
Cc1ccncc1-c1nc(-c2ccc3c(c2)nnn3C(C)(C)CO)no1 [Compound 625, 2-methyl-2-(5-(5-(4-methylpyridin-3-yl)-1,2,4-oxadiazol-3-yl)-1H-benzo[d] [1,2,3]triazol-1-yl)propan-1-ol] | > 316

Other lines, results leading:

EC50 [nM] | Compound
> 316 | CC(C)Cn1nnc2cc(-c3nc4c(Br)cccc4o3)ccc21 [Compound 461, 4-bromo-2-(1-isobutyl-1H-benzo[d][1,2,3]triazol-5-yl)benzo[d]oxazole]
> 316 | CC(C)(O)Cn1nnc2cc(-c3nc(-c4ccc5nc[nH]c5c4)no3)ccc21 [Compound 501, 1-{5-[3-(1H-1,3-benzo-diazol-6-yl)-1,2,4-oxadiazol-5-yl]-1H-1,2,3-benzotriazol-1-yl}-2-methylpropan-2-ol]
> 316 | CC(C)n1nnc2cc(-c3nc4ccncc4o3)ccc21 [Compound 503, 2-(1-isopropyl-1H-benzo[d][1,2,3]triazol-5-yl)oxazolo[5,4-c]pyridine]
> 316 | CC(C)Cn1nnc2cc(-c3nc4ccncc4o3)ccc21 [Compound 504, 2-(1-isobutyl-1H-benzo[d][1,2,3]triazol-5-yl)oxazolo[5,4-c]pyridine]
< 316 | CC(C)Oc1ccc(-c2ccc(-c3ccc4c(c3)nnn4C(C)C)cc2)cc1C#N [Compound 506, 4-isopropoxy-4′-(1-isopropyl-1H-benzo[d][1,2,3]triazol-5-yl)-[1,1′-biphenyl]-3-carbonitrile]
< 316 | CC(C)n1nnc2cc(-c3nc(-c4ccc5nc[nH]c5c4)no3)ccc21 [Compound 511, 5-[3-(1H-1,3-benzodiazol-6-yl)-1,2,4-oxadiazol-5-yl]-1-(propan-2-yl)-1H-1,2,3-benzotriazole]
< 316 | COc1cccc2nc(-c3ccc4c(c3)nnn4C(C)C)oc12 [Compound 515, 2-(1-isopropyl-1H-benzo[d][1,2,3]triazol-5-yl)-7-methoxy-benzo[d]oxazole]
> 316 | Cc1ccccc1-c1c[nH]c(-c2ccc3c(c2)nnn3C(C)C)c1 [Compound 516, 5-[4-(2-methylphenyl)-1H-pyrrol-2-yl]-1-(propan-2-yl)-1H-1,2,3-benzotriazole]
< 316 | Cc1cn(C)nc1-c1noc(-c2ccc3c(c2)nnn3C(C)C)n1 [Compound 519, 5-[3-(1,4-dimethyl-1H-pyrazol-3-yl)-1,2,4-oxadiazol-5-yl]-1-(propan-2-yl)-1H-1,2,3-benzotriazole]
> 316 | CC(C)n1nnc2cc(-c3nc(-c4nccn4C)no3)ccc21 [Compound 569, 5-[3-(1-methyl-1H-imidazol-2-yl)-1,2,4-oxadiazol-5-yl]-1-(propan-2-y1)-1H-1,2,3-benzotriazole]
> 316 | CC(C)(O)Cn1nnc2cc(-c3nc(-c4cocn4)no3)ccc21 [Compound 570, 2-methyl-1-{5-[3-(1,3-oxazol-4-yl)-1,2,4-oxadiazol-5-yl]-1H-1,2,3-benzotriazol-1-yl}propan-2-ol]
< 316 | CC(C)n1nnc2cc(-c3noc(-c4ccccc4N)n3)ccc21 [Compound 576, 2-{3-[1-(propan-2-yl)-1H-1,2,3-benzotriazol-5-yl]-1,2,4-oxadiazol-5-yl}aniline]
> 316 | CC(C)(O)Cn1nnc2cc(-c3nc(-c4cccc5cc[nH]c45)no3)ccc21 [Compound 577, 1-{5-[3-(1H-indol-7-yl)-1,2,4-oxadiazol-5-yl]-1H-1,2,3-benzotriazol-1-yl}-2-methylpropan-2-ol]
< 316 | CCC1(CC)CC(=O)c2cc(-c3nc(-c4ccc(NC(C)=O)cc4OC(F)(F)F)no3)ccc2O1 [Compound 584, N-{4-[5-(2,2-diethyl-4-oxo-3,4-dihydro-2H-1-benzopyran-6-yl)-1,2,4-oxadiazol-3-yl]-3-(trifluoromethoxy)phenyl}acetamide]
> 316 | CNc1ccccc1-c1coc(-c2ccc3c(c2)nnn3C(C)C)n1 [Compound 587, N-methyl-2-{2-[1-(propan-2-yl)-1H-1,2,3-benzotriazol-5-yl]-1,3-oxazol-4-yl}aniline]
< 316 | CNc1ccccc1-c1nc(-c2ccc3c(c2)nnn3C(C)C)no1 [Compound 599, N-methyl-2-{3-[1-(propan-2-yl)-1H-l,2,3-benzotriazol-5-yl]-1,2,4-oxadiazol-5-yl}aniline]
< 316 | N#Cc1cc(-c2nnc(-c3ccc4[nH]cnc4c3)o2)ccc1NC(CF)CF [Compound 600, 5-[5-(1H-1,3-benzo-diazol-5-yl)-1,3,4-oxadiazol-2-yl]-2-[(1,3-difluoropropan-2-yl)amino]benzonitrile]
< 316 | COc1cnccc1-c1nc(-c2ccc3c(c2)nnn3C(C)C)no1 [Compound 606, 3-(1-isopropyl-1H-benzo[d][1,2,3]triazol-5-yl)-5-(3-methoxy-pyridin-4-yl)-1,2,4-oxadiazole]
< 316 | COc1ncccc1-c1nc(-c2ccc3c(c2)nnn3C(C)C)no1 [Compound 607, 3-(1-isopropyl-1H-benzo[d][1,2,3]triazol-5-yl)-5-(2-methoxy-pyridin-3-yl)-1,2,4-oxadiazole]
< 316 | COc1cccnc1-c1nc(-c2ccc3c(c2)nnn3C(C)C)no1 [Compound 612, 3-(1-isopropyl-1H-benzo[d][1,2,3]triazol-5-yl)-5-(3-methoxy-pyridin-2-yl)-1,2,4-oxadiazole]
> 316 | COc1ccccc1-c1nc(-c2ccc3c(c2)nnn3C(C)(C)CO)no1 [Compound 623, 2-(5-(5-(2-methoxy-phenyl)-1,2,4-oxadiazol-3-yl)-1H-benzo[d][1,2,3]triazol-1-yl)-2-methyl-propan-1-ol]
> 316 | COc1cccnc1-c1noc(-c2ccc3c(c2)nnn3C(C)C)n1 [Compound 627, 5-(1-isopropyl-1H-benzo[d][1,2,3]triazol-5-yl)-3-(3-methoxypyridin-2-yl)-1,2,4-oxadiazole]
> 316 | Cc1nccnc1-c1nc(-c2ccc3c(c2)nnn3C(C)(C)CO)no1 [Compound 641, 2-methyl-2-(5-(5-(3-methyl-pyrazin-2-yl)-1,2,4-oxadiazol-3-yl)-1H-benzo[d][1,2,3]triazol-1-yl)propan-1-ol]
